Drawing on PubChem BioAssay AID1208 (EPA DSSTox, 2008), this text covers outcome and Potency for 75 compounds.

The test system of this data set is rat chronic carcinogenicity bioassay, TD50. The data set can be described thus: DSSTox (CPDBAS) Carcinogenic Potency Database Summary Rat Bioassay Results. As to conditions: for outcome: TD50_Rat_Note: no positive results; for Potency: stronger effect = lower value. Put shortly:
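The activity score maps log10(1/TD50_Rat_mmol) linearly onto 1–100; actives without a computed TD50, such as mixtures, receive 50. Source data are chronic rat carcinogenicity tests, using the most positive experiment for each sex.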

Where [1] appears, read: TargetSites_Rat_Female: no positive results.
Where [2] appears, read: TD50_Rat_Note: TD50 is harmonic mean of more than one positive test, TargetSites_Rat_Female: liver.
[3] abbreviates: TD50_Rat_Note: TD50 is harmonic mean of more than one positive test, TargetSites_Rat_Female: liver, mammary gland.
Where [4] appears, read: TD50_Rat_Note: TD50 is harmonic mean of more than one positive test, TargetSites_Rat_Female: thyroid gland.
Setting [5] is: TargetSites_Rat_Female: hematopoietic system, mammary gland.
[6] abbreviates: TargetSites_Rat_BothSexes: all tumor bearing animals.

Calls of active or inactive are those of the source.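 How the source made its calls: active means at least one rat sex group has a carcinogenic potency value and tumor site recorded; inconclusive means only rat studies were judged inadequate by the national testing program; inactive means no potency or tumor site, with negative rat experiments.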

For `CC1=CC(=C(c2ccc(N)cc2)c2ccc(N)cc2)C=CC1=N`, the outcome under setting [1] was “inactive; no positive results”.
With `CCOC(=O)C1OC1(C)c1ccccc1` (stereo unspecified), the outcome under setting [1] was “inactive; no positive results”.
Turning to `CN(N=O)c1ccc(/C=C/c2ccnc3ccccc23)cc1`, the Potency under setting [2] is 0.699 mg/kg/day.
`Cc1cccn2c1nc1ccc(N)nc12`: under “TD50_Rat_Note: TD50 is harmonic mean of more than one positive test, TargetSites_Rat_Female: clitoral gland, ear Zymbals gland, large intestine, liver, nervous system, small intestine”, the Potency was 4.69 mg/kg/day.
On to `COc1cc(-c2ccc(N)c(OC)c2)ccc1N`, for which the Potency (TD50_Rat_Note: TD50 is harmonic mean of more than one positive test, TargetSites_Rat_Female: clitoral gland, ear Zymbals gland, large intestine, liver, mammary gland, oral cavity, skin, uterus) was 1.04 mg/kg/day.
With `CN(N=O)c1ccc(N=O)cc1`, the Potency (TD50_Rat_Note: positive test results only by intraperitoneal or intravenous injection, no positive results are statistically significan) is 1.3 mg/kg/day.
For `C=C1C(CCl)(CCl)C2(Cl)C(Cl)C(Cl)C1(Cl)C2(Cl)Cl` (stereo unspecified), the outcome under setting [1] was “inactive; no positive results”.
The same measure, in the same setting: the value for `CCOc1ccc(NC(C)=O)cc1N` was “inactive; no positive results”.
Take `ClC(Cl)(Cl)Cl`: the Potency under setting [3] is 27.8 mg/kg/day.
Turning to `COc1c2occc2cc2ccc(=O)oc12`, the Potency under setting [1] was 32.4 mg/kg/day.
On to `OC(O)C(Cl)(Cl)Cl`, for which the outcome was “inactive; no positive results”.
`O=[N+]([O-])c1ccc(-c2cscn2)o1`: the Potency (TargetSites_Rat_Female: mammary gland, stomach) is 7.68 mg/kg/day.
With `CCC(O)OC(O)CC` (stereo unspecified), the outcome under setting [1] is “inactive; no positive results”.
For `CNC(=O)c1c(N(C)N=O)ncn1C`, the Potency (TargetSites_Rat_BothSexes: nasal cavity) was 1 mg/kg/day.
Regarding `CN(C)c1ccc(Cc2ccc(N(C)C)cc2)cc1`, the Potency under setting [4] is 16.4 mg/kg/day.
With `CN(N=O)c1ccc([N+](=O)[O-])cc1`, the outcome is “inactive; no positive results”.
As for `O=S(=O)(O)c1c(N=Nc2c(O)ccc3ccccc23)ccc2ccccc12`, the outcome under setting [1] is “inactive; no positive results”.
As to `C=CC`, under setting [1], the outcome was “inactive; no positive results”.
With `C/C=C(\C)C(=O)O[C@@H]1CCN2CC=C(COC(=O)C(O)(C(C)C)C(C)O)[C@H]12` (stereo partly specified), the Potency (TD50_Rat_Note: positive test results only by intraperitoneal or intravenous injection) was 1.91 mg/kg/day.
`OC[C@@H](O)[C@@H](O)[C@H](O)[C@H](O)CO`: the outcome under setting [1] is “inactive; no positive results”.
`COc1ccc2nc(S(=O)Cc3ncc(C)c(OC)c3C)[nH]c2c1` (stereo unspecified): the Potency (TD50_Rat_Note: TD50 is harmonic mean of more than one positive test, greater than ten-fold variation among TD50 values for positive res, TargetSites_Rat_Female: stomach) is 119 mg/kg/day.
As for `[O-][Br+2]([O-])O`, under “TD50_Rat_Note: TD50 is harmonic mean of more than one positive test, TargetSites_Rat_Female: kidney”, the Potency is 9.82 mg/kg/day.
In the case of `O=C1NCCN1/N=C/c1ccc([N+](=O)[O-])o1`, under setting [5], the Potency was 5.26 mg/kg/day.
As to `CN(C)C(=O)Nc1ccc(Cl)cc1`, the Potency under setting [1] is 131 mg/kg/day.
In the case of `C=C(C)[C@H]1Cc2c(ccc3c2O[C@@H]2COc4cc(OC)c(OC)cc4[C@@H]2C3=O)O1`, the outcome under setting [1] was “inactive; no positive results”.
As to `CC(=O)Nc1ccc(N=Nc2cc(C)ccc2O)cc1`, the Potency under setting [1] is 380 mg/kg/day.
Turning to `O=C(O)CCCC/C=C(\c1ccccc1)c1cccnc1`, the outcome under setting [1] is “inactive; no positive results”.
Take `O=C1CCCO1`: the outcome under setting [1] was “inactive; no positive results”.
For `COc1c(Cl)c(Cl)c([N+](=O)[O-])c(Cl)c1Cl`, the outcome under setting [1] was “inactive; no positive results”.
For the compound `COc1ccc(N)c(OC)c1`, under setting [1], the outcome is “inactive; no positive results”.
Turning to `CC[C@H](OC(C)=O)C(C[C@H](C)N(C)C)(c1ccccc1)c1ccccc1`, the Potency under setting [2] was 68 mg/kg/day.
On to `CCN(CC)N=O`, for which the Potency (TD50_Rat_Note: TD50 is harmonic mean of more than one positive test, greater than ten-fold variation among TD50 values for positive res, TargetSites_Rat_Female: esophagus, liver, oral cavity, stomach) was 0.0265 mg/kg/day.
`NNc1nc(-c2ccc(N)cc2)cs1`: the Potency under setting [5] was 1.03 mg/kg/day.
For the compound `O=C1c2ccccc2-c2ccc3c4c(ccc1c24)-c1ccccc1C3=O`, the outcome under setting [1] is “inactive; no positive results”.
For the compound `Nc1ccc(Cc2ccc(N)cc2)cc1`, the Potency under setting [4] is 20 mg/kg/day.
For the compound `CC(C)Oc1ccccc1OC(=O)N(C)N=O`, the Potency was 0.364 mg/kg/day.
Consider `C/C=N/O`, for which the outcome is “inactive; no positive results”.
In the case of `O=NN(CC(F)(F)F)CC(F)(F)F`, the outcome under setting [1] is “inactive; no positive results”.
For the compound `CCCCN(N=O)C(N)=O`, the Potency (TD50_Rat_Note: TD50 is harmonic mean of more than one positive test, greater than ten-fold variation among TD50 values for positive res, TargetSites_Rat_Female: esophagus, ear Zymbals gland, hematopoietic system, large intestine, lung, mammary gland, stomach, uterus, vagina) was 0.517 mg/kg/day.
In the case of `CNC(=O)Oc1cccc2ccccc12`, the Potency under setting [6] is 14.1 mg/kg/day.
Turning to `CN(C)[C@@H]1C(=O)C(C(N)=O)=C(O)[C@@]2(O)C(=O)C3=C(O)c4c(O)cccc4[C@@](C)(O)[C@H]3C[C@@H]12`, the outcome under setting [1] is “inactive; no positive results”.
Regarding `N/C(=N\O)c1ccc([N+](=O)[O-])o1`, under setting [1], the result was inactive.
Consider `CCCCCCCCCCC(C)c1ccc(S(=O)(=O)O)cc1` (stereo unspecified), for which the outcome under setting [1] is “inactive; no positive results”.
Turning to `O=C1CCN([C@@H]2O[C@H](CO)[C@@H](O)[C@H]2O)C(=O)N1`, the outcome was “inactive; no positive results”.
Regarding `O=C(O)CCC(=O)O`, the outcome under setting [1] is “inactive; no positive results”.
As for `CC1=C(C(=O)OC(C)C)C(c2cccc([N+](=O)[O-])c2)C(C(=O)OC2CN(C(c3ccccc3)c3ccccc3)C2)=C(N)N1` (stereo unspecified), the outcome under setting [1] was “inactive; no positive results”.
As to `c1ccccc1`, the Potency (TD50_Rat_Note: TD50 is harmonic mean of more than one positive test, TargetSites_Rat_Female: ear Zymbals gland, nasal cavity, oral cavity, stomach, vascular system) was 169 mg/kg/day.
Take `COc1cc(/C=C/C(=O)O[C@H]2CC[C@]34C[C@]35CC[C@]3(C)[C@@H]([C@H](C)CCC=C(C)C)CC[C@@]3(C)[C@@H]5CC[C@H]4C2(C)C)ccc1O`: under setting [1], the outcome was “inactive; no positive results”.
Regarding `c1ccc(NNc2ccccc2)cc1`, under setting [3], the Potency was 5.59 mg/kg/day.
Turning to `NC(=O)N(CC(=O)O)N=O`, where the note is “TD50_Rat_Note: TD50 is harmonic mean of more than one positive test, greater than ten-fold variation among TD50 values for positive res, TargetSites_Rat_Female: mammary gland, small intestine”, the Potency is 4.31 mg/kg/day.
Take `CCC1C(=O)OCC1Cc1cncn1C` (stereo unspecified): the outcome under setting [1] is “inactive; no positive results”.
As to `CCOC(=O)N(CC)N=O`, the Potency (TD50_Rat_Note: TD50 is harmonic mean of more than one positive test, TargetSites_Rat_Female: esophagus, oral cavity, small intestine, stomach) is 0.0904 mg/kg/day.
Regarding `CCOC(N)=O`, the Potency under setting [6] was 41.3 mg/kg/day.
Regarding `FC(F)Cl`, the outcome under setting [1] was “inactive; no positive results”.
For `CCN(Cc1cccc(S(=O)(=O)O)c1)c1ccc(C(=C2C=CC(=[N+](CC)Cc3cccc(S(=O)(=O)[O-])c3)C=C2)c2ccc(S(=O)(=O)O)cc2)cc1`, the Potency (TargetSites_Rat_BothSexes: hematopoietic system) is 5640 mg/kg/day.
`[O]=[Cr](=[O])([OH])[O][Cr](=[O])(=[O])[OH]`: the Potency is 4.64 mg/kg/day.
Turning to `CCNC(=O)N(CCN(C)C)N=O`, the Potency (TargetSites_Rat_Female: mammary gland, uterus) was 0.704 mg/kg/day.
With `OCC1CO1` (stereo unspecified), where the note is “TD50_Rat_Note: TD50 is harmonic mean of more than one positive test, TargetSites_Rat_Female: clitoral gland, hematopoietic system, mammary gland, nervous system, oral cavity, stomach, thyroid gland”, the Potency was 4.28 mg/kg/day.
For the compound `CN(C)c1ccc(C(=O)c2ccc(N(C)C)cc2)cc1`, the Potency under setting [2] was 5.64 mg/kg/day.
Take `O=Cc1ccco1`: the Potency under setting [1] was 683 mg/kg/day.
For `CC1(C)S[C@@H]2[C@H](NC(=O)[C@H](N)c3ccccc3)C(=O)N2[C@H]1C(=O)O`, the outcome under setting [1] is “inactive; no positive results”.
Consider `N[C@@H](Cc1ccc(N(CCCl)CCCl)cc1)C(=O)O`, for which the Potency (TD50_Rat_Note: positive test results only by intraperitoneal or intravenous injection, TD50 is harmonic mean of more than one positive, TargetSites_Rat_Female: peritoneal cavity) was 0.0938 mg/kg/day.
For `CN(CC(O)CO)N=O` (stereo unspecified), the Potency (TargetSites_Rat_Female: esophagus, liver, lung, nasal cavity) is 0.646 mg/kg/day.
On to `Nc1ccc2c(c1)C(=O)c1ccccc1C2=O`, for which, under setting [1], the Potency is 101 mg/kg/day.
On to `FC(Cl)C(F)(F)F` (stereo unspecified), for which the outcome under setting [1] was inactive.
Same read-out and setting: the value for `NC(=O)c1ccccc1C(N)=O` was “inactive; no positive results”.
For the compound `FCC(F)(F)F`, the Potency under setting [1] is 29900 mg/kg/day.
In the case of `C=CC(OC(C)=O)c1ccc2c(c1)OCO2` (stereo unspecified), the Potency (TD50_Rat_Note: TD50 is harmonic mean of more than one positive test) is 25 mg/kg/day.
Turning to `CN1[C@@H]2CC(OC(=O)[C@@H](CO)c3ccccc3)C[C@H]1[C@@H]1O[C@@H]12` (stereo partly specified), the outcome under setting [1] was “inactive; no positive results”.
Turning to `Cc1c(N)nc(C)c2c1[nH]c1ccccc12`, the Potency under setting [2] is 0.575 mg/kg/day.
For the compound `C/C=C/C=O`, the Potency was 4.2 mg/kg/day.
For `Cc1cc(-c2ccc(N)c(C)c2)ccc1N`, the Potency (TD50_Rat_Note: TD50 is harmonic mean of more than one positive test, TargetSites_Rat_Female: clitoral gland, ear Zymbals gland, large intestine, liver, lung, mammary gland, oral cavity, skin, small intestine) is 0.629 mg/kg/day.
In the case of `CN1C(C(=O)Nc2ccccn2)=C(O)c2ccccc2S1(=O)=O`, the outcome was “inactive; no positive results”.
Take `O=C1NS(=O)(=O)c2ccccc21`: the outcome is “inactive; no positive results”. Further, the Potency (TD50_Rat_Note: TD50 is harmonic mean of more than one positive test, greater than ten-fold variation among TD50 values for positive res, TargetSites_Rat_Female: no positive results) was 2140 mg/kg/day.
As for `C=C1C[C@@]23CC[C@H]4[C@@](C)(CCC[C@@]4(C)C(=O)O[C@@H]4O[C@H](CO)[C@@H](O)[C@H](O)[C@H]4O)[C@@H]2CC[C@]1(O[C@@H]1O[C@H](CO)[C@@H](O)[C@H](O)[C@H]1O[C@@H]1O[C@H](CO)[C@@H](O)[C@H](O)[C@H]1O)C3`, under setting [1], the outcome is “inactive; no positive results”.
